{"source": "patent US10898548B2", "about": "“Modulators of protein tyrosine phosphatase and uses thereof” (LEUVAS THERAPEUTICS, priority 2015, dated 2021)", "key": {"[1]": {"system": "Hbb^th3/+ mice (β-thalassemia model)", "assay": "hematological parameters and red cell indices in β-thalassemic and wild-type mice", "format": "in vivo, mouse", "design": "CH (hemoglobin concentration): unit not given here", "settings": "TAT-ICD 5 mg/kg i.p. once every other day for 3 weeks", "method": "(§1) Wild-type C57BL/6J mice and the mouse model for β-thalassemia (designated as Hbb^th3/+) were used for these studies. Flow cytometric analysis and sorting of mouse bone marrow and spleen precursors were performed using standard protocols using markers for CD44 and TER119 and cell size (forward scatter) to distinguish erythroid precursors at each distinct developmental stage. Forward scatter high-CD44+Ter119+ cells represents total erythroblasts (or erythroid mass in bone marrow or spleen). These erythroblasts can be further analyzed and sorted in subpopulations: population I: pro-erythroblasts; population II: basophilic erythroblasts; population III: polychromatic erythroblasts; population IV: orthochromatic erythroblasts, as described in Matte et al 2015, Antioxid. Redox Signal. 2015 23(16):1284-1297. Population II, III and IV corresponding to basophilic erythroblasts, polychromatic erythroblasts and orthochromatic erythroblasts were sorted from bone marrow as previously described (Matte et al 2015 Antioxid. Redox Signal. 2015 23(16):1284-1297).\nWild-type and Hbb^3th/+ were treated with TAT-ICD at 5 mg/kg i.p once every other day for 3 weeks. […] Hematological parameters, red blood cell indices and reticulocyte counts were determined using standard procedures. Table 37 summarizes the effect of treatment of WT and HBB mice with TAT-ICD9 on key hematological parameters and red cell indices."}, "[2]": {"system": "Hbb^th3/+ mice (β-thalassemia model)", "assay": "percent of soluble alpha globin in red cells", "format": "in vivo, mouse", "settings": "TAT-ICD 5 mg/kg i.p once every other day for 3 weeks", "excerpt": "We also observed a significant improvement in the α/β globin ratio with treatment of beta-thalassemic mice, a key measure of successful treatment of beta-thalassemia. The mutations in the beta-globin gene in beta-thalassemia results in absent or reduced synthesis of beta-globin chains leading to unbalanced globin chain synthesis and unpaired alpha-chain that form highly toxic aggregates in erythroid progenitors and red blood cells, and can be measured as a decrease in soluble alpha globulin. We measured the amount of soluble vs insoluble globulin not bound to heme (Table 38) and observed a significant (P<0001; 2 tailed T test) decrease in the percent of soluble alpha-globin in the beta-thalassemic mice compared to wild type mice (Table 38)."}, "[3]": {"system": "Hbb^th3/+ mice (β-thalassemia model)", "assay": "reactive oxygen species (ROS) levels, CM-H2DCFDA", "format": "in vivo, mouse", "settings": "for mean ROS level in red cells: TAT-ICD 5 mg/kg i.p once every other day for 3 weeks", "method": "Reactive oxygen species (ROS) are known to be increased in red blood cells in β-thalassemia and are thought to be important in the pathophysiology of the disease, leading to cumulative cell damage. The reactive oxygen species (ROS) levels from erythroid precursor populations was assessed using the General Oxidative Stress Indicator CM-H2DCFDA (Life Technologies, Carlsbad, Calif.) as described (Matte A. et al 2015 Antioxid. Redox Signal 23(16):1284-1297). […] Data are the mean ROS level."}, "[4]": {"system": "Hbb^th3/+ mice (β-thalassemia model)", "assay": "bone marrow erythroid precursors by flow cytometry (CD44, TER119)", "format": "in vivo, mouse", "settings": "for percent of bone marrow erythroid precursors (fsc high CD44+TER119+ cells), Mean: ICD-Treated, 3 weeks", "method": "as §1\nIneffective erythropoiesis in β-thalassemia is characterized by a block in cell maturation with accumulation of erythroid precursors and increased cell apoptosis in late phase erythropoiesis in the bone marrow.\nTreatment of Hbb^th3/+ mice with PTPRG ICD results in a statistically significant increases in the percent of proerythroblasts (P<0.001) back to normal levels (5.9+/−0.6). In addition, ROS levels, which are increased in all four populations in Hbb mice compared to wild type mice are decreased PTPRG ICD-treated mice in all four populations, in agreement with the decrease in ROS levels in circulating red cells (Table 39)."}, "[5]": {"system": "Hbb^th3/+ mice (β-thalassemia model)", "assay": "apoptosis of bone marrow orthochromatic erythroblasts (Annexin-V PE)", "format": "in vivo, mouse", "settings": "ICD-Treated, 3 weeks", "method": "One of the hallmarks of β-thalassemia is increased apoptosis of late-stage erythroblasts. Apoptosis of population IV (orthochromatic erythroblasts) was assessed using standard protocols using the Annexin-V PE apoptosis kit following manufacturer instructions. Data are the mean percent of apoptotic cells (Table 42)."}, "[6]": {"system": "Hbb^th3/+ mice (β-thalassemia model)", "assay": "extramedullary erythropoiesis in spleen", "format": "in vivo, mouse", "settings": "treated mice, 3 weeks", "method": "as §1"}, "[7]": {"system": "Hbb^th3/+ mice (β-thalassemia model)"}}, "note": "Where two headings read alike, the source gives them in different places. Marks after values point to notes of the source that are not given here.", "data": [{"substance": "TAT-ICD: fusion recombinant protein SEQ ID 5: PTPRG intracellular domain aa 797-1445 fused to 13 aa TAT sequence", "values": [{"measurement": "CH (hemoglobin concentration)", "setting": "[1]; Hbb3th/+ mice, n = 4", "value": "10.4 ± 0.3"}, {"measurement": "CHr (reticulocyte hemoglobin concentration)", "setting": "[1]; Hbb3th/+ mice, n = 4", "value": "12.0 ± 0.39", "unit": "pg"}, {"measurement": "Hb (hemoglobin)", "setting": "[1]; Hbb3th/+ mice, n = 4", "value": "10.1 ± 0.3", "unit": "g/dL"}, {"measurement": "Hct (hematocrit)", "setting": "[1]; Hbb3th/+ mice, n = 4", "value": "34.8 ± 4.9", "unit": "%"}, {"measurement": "MCH (mean corpuscular hemoglobin)", "setting": "[1]; Hbb3th/+ mice, n = 4", "value": "10.2 ± 0.4", "unit": "pg"}, {"measurement": "MCV (mean corpuscular volume)", "setting": "[1]; Hbb3th/+ mice, n = 4", "value": "393 ± 0.9", "unit": "fL"}, {"measurement": "MCVr (mean corpuscular volume reticulocytes)", "setting": "[1]; Hbb3th/+ mice, n = 4", "value": "49.2 ± 1.2", "unit": "fL"}, {"measurement": "Neutrophil", "setting": "[1]; Hbb3th/+ mice, n = 4", "value": "1407 ± 597", "unit": "cells/uL"}, {"measurement": "RDW (red cell distribution width)", "setting": "[1]; Hbb3th/+ mice, n = 4", "value": "25.7 ± 1.0", "unit": "%"}, {"measurement": "Retics (reticulocytes)", "setting": "[1]; Hbb3th/+ mice, n = 4", "value": "18.2 ± 2.0", "unit": "%"}, {"measurement": "WBC", "setting": "[1]; Hbb3th/+ mice, n = 4", "value": "9125 ± 1021", "unit": "cells/uL"}, {"measurement": "CH (hemoglobin concentration)", "setting": "[1]; WT mice, n = 3", "value": "13.6 ± 0.2"}, {"measurement": "CHr (reticulocyte hemoglobin concentration)", "setting": "[1]; WT mice, n = 3", "value": "14.0 ± 0.1", "unit": "pg"}, {"measurement": "Hb (hemoglobin)", "setting": "[1]; WT mice, n = 3", "value": "14.9 ± 0.4", "unit": "g/dL"}, {"measurement": "Hct (hematocrit)", "setting": "[1]; WT mice, n = 3", "value": "46.3 ± 0.5", "unit": "%"}, {"measurement": "MCH (mean corpuscular hemoglobin)", "setting": "[1]; WT mice, n = 3", "value": "15.0 ± 0.7", "unit": "pg"}, {"measurement": "MCV (mean corpuscular volume)", "setting": "[1]; WT mice, n = 3", "value": "50.1 ± 0.1", "unit": "fL"}, {"measurement": "MCVr (mean corpuscular volume reticulocytes)", "setting": "[1]; WT mice, n = 3", "value": "55.0 ± 0.3", "unit": "fL"}, {"measurement": "Neutrophil", "setting": "[1]; WT mice, n = 3", "value": "1833 ± 461", "unit": "cells/uL"}, {"measurement": "RDW (red cell distribution width)", "setting": "[1]; WT mice, n = 3", "value": "13.6 ± 0.3", "unit": "%"}, {"measurement": "Retics (reticulocytes)", "setting": "[1]; WT mice, n = 3", "value": "4.3 ± 0.5", "unit": "%"}, {"measurement": "WBC", "setting": "[1]; WT mice, n = 3", "value": "6005 ± 980", "unit": "cells/uL"}, {"measurement": "percent of soluble alpha globulin", "setting": "[2]; Hbb^th3/+ mice, Vehicle-treated 87.9", "value": "92.5* %"}, {"measurement": "percent of soluble alpha globulin", "setting": "[2]; Wild-type mice, Vehicle-treated 98.4", "value": 97.9, "unit": "%"}, {"measurement": "ROS levels in bone marrow erythroid precursor populations I-IV", "setting": "[3]; Hbb mice, all four populations", "value": "decreased"}, {"measurement": "mean ROS level in red cells", "setting": "[3]; Hbb^th3/+ mice, Untreated 13.75", "value": "9.73*"}, {"measurement": "mean ROS level in red cells", "setting": "[3]; Wild-type mice, Untreated 3.32", "value": 2.79}, {"measurement": "percent of bone marrow erythroid precursors (fsc high CD44+TER119+ cells), Mean", "setting": "[4]; Hbb^th3/+ mice", "value": "23.8* percent"}, {"measurement": "percent of bone marrow erythroid precursors (fsc high CD44+TER119+ cells), Mean", "setting": "[4]; Wild-type mice", "value": 13.9, "unit": "%"}, {"measurement": "percent of pro-erythroblasts (population I) in bone marrow", "setting": "[4]; treated Hbb^th3/+ mice, untreated Hbb^th3/+ 3.6+/−0.9, wild-type 6.5+/−0.9", "value": "5.9+/−0.6%"}, {"measurement": "mean percent of apoptotic cells, bone marrow orthochromatic erythroblasts (population IV)", "setting": "[5]; Hbb^th3/+ mice", "value": "5.75* percent"}, {"measurement": "mean percent of apoptotic cells, bone marrow orthochromatic erythroblasts (population IV)", "setting": "[5]; Wild-type mice", "value": 4.20, "unit": "%"}, {"measurement": "extramedullar erythropoiesis in spleen", "setting": "[6]", "value": "trend to reduction"}, {"measurement": "red cell morphology", "setting": "[7]; Hbb^th3/+ mice", "value": "ameliorated red cell morphological abnormalities"}, {"measurement": "red cell morphology", "setting": "[7]; mouse, in vivo", "value": "without any changes"}]}]}
